Non-standard residues stand in square brackets, D forms with d. Residues, ends and D or L forms follow the SMILES beside them. ξ: configuration not given here. *: point of attachment. ξTHIQ1CO(6-Me) = Cc1ccc2c(c1)CCNC2C(=O)O; X1 = O=C(O)CC(N*)C(=O)COc1c(F)cccc1F; Quinaldoyl = O=C(c1ccc2ccccc2n1)*
Assays:
HeLa cells = assay: Vincristine-induced HeLa cell death (propidium iodide, flow cytometry); assay type: cell-based, human; details: indicated doses, 1 h pretreatment, 20 nM vincristine 44 h
Method: HeLa cells (obtained from ATCC) were cultured in Dulbecco’s Modified Eagle Medium (DMEM, High Glucose, GlutaMAX™, Pyruvate) supplemented with antibiotics and 10% fetal calf serum (FCS) (Gibco, Life Technologies) and maintained in T75 Flasks at 1 × 10^6 cells per flask. Twenty-four hours before treatments, HeLa cells were transferred to 6-well plates (8 × 10^4 cells/well). The lymphoblastoid cell line Molt4cl8 was a gift from Dr. Bernard Krust (Inserm, University Paris 5) and was cultured in RPMI 1640 Glutamax medium supplemented with Hepes, antibiotics, and 10% FCS. HEK293 cells were obtained from ATCC (CRL-1573) and cultured in DMEM with Glutamax and 25 mM glucose (Life Technologies) supplemented with 10% FCS and antibiotics. For cell death induction, the following agents were added to cell cultures: Vincristine (Sigma) and Panobistat (LBH589; Selleck). Cell death was analyzed using fluorescence microscopy (Axio-observer Z1, Zeiss; equipped with CCD camera CoolsnapHQ2, Ropert Scientific) and cytofluorometry (MACSQuant® VYB; Miltenyi Biotec, Bergisch Gladbach, Germany) after labeling with propidium iodide (1 µg/mL; 10 min; 37 °C; Life Technologies) and Hoechst 33342 (1 µg/mL; 5 min; RT; Sigma).
Fig. 2 q33 and h33 are protective against the cytocidal effect of Vincristine. a Vincristine induces HeLa cell death. Cells were incubated for 44 h at 37 °C with 20 nM Vincristine (VCR), then incubated with propidium iodide at 2 μg/mL for 10 min and analyzed by flow cytometry to quantify plasma membrane permeabilization. Histograms show fluorescence intensity detected by flow cytometry (one representative experiment) in the presence (VCR) or Absence (Co.) of Vincristine. % of propidium iodide-positive cells are indicated for both conditions. b Dose–response of Vincristine-induced cell death. HeLa cells were incubated and treated as in (a) with the indicated doses of Vincristine (VCR) and analyzed by flow cytometry. […] Representative fluorescence microscopy micrographs of cells treated for 44 h with 20 nM vincristine (VCR) or not (Co.) and stained with Hoechst 33342. Vincristine induces progressive nuclear changes with first condensed nuclei (arrows) and then apoptotic bodies (dashed arrow). d Broad-spectrum irreversible caspase inhibitors prevent vincristine-induced cell death. HeLa cells were pretreated for 1 hr with the indicated broad-spectrum irreversible caspases inhibitors (z-VAD(OMe)-fmk at 30 μM, Q-VD-OPh 30 μM, Emricasan 10 μM, or the negative control Q-VE-OPh 30 μM), then treated with vincristine as in panel (a), and analyzed by flow cytometry. Histograms show the mean ± SD of 3 independent experiments (***p value < 0.001). e Effect of the reversible Caspase-2 inhibitors q33 and h33 against vincristine-induced cell death. HeLa cells were pretreated for 1 h with the indicated doses of q33 or h33, then treated with vincristine as in panel a, and analyzed by flow cytometry. Histograms show the mean ± SD of three independent experiments (*p value < 0.1). TEXT PRINTED IN THE PICTURE: (a) VCR: 39,5 % DOUBTS OF THE COPYIST ABOUT THIS PICTURE: Panel a: the picture prints no measure beside "39,5 %" and "4.1%". I assigned 39,5 % to VCR only because it stands by the grey VCR peak. / Panel a: "4.1%" seems to belong to the untreated control (Co.). That is not a substance, so it is left out.
Fig. 5 LJ2 inhibits cell death induced by microtubule destabilization and hydroxamic acid-based deacetylase (HDAC) inhibition. a Effect of the irreversible Caspase-2 inhibitors LJ2 against vincristine-induced cell death. HeLa cells were pretreated for 1 h with the indicated doses of LJ2, Q-VD-OPh, or Q-LETD-OPh, then treated with vincristine (VCR) as in Fig. 2, then incubated with propidium iodide at 2 μg/mL for 10 min and analyzed by flow cytometry. Histogram data are mean ± SD (n = 3, *p value < 0.01). b Effect of Caspases-inhibitors against Panobistat (LBH589)-induced cell death. […]

Trypsin = assay: Non-caspase enzyme assay, Trypsin; assay type: biochemical, human; details: concentrations up to 10 µM
Method: (§1) Stock solutions were stored at −80 °C. […]
(§2) Non-caspase enzyme assays
(§3) The human pro- kallikrein-1 (pro-hK1) was activated in a buffer containing: Tris-HCl 50 mM, CaCl2 10 mM, NaCl 150 mM, Brij-35 0,05% pH 7,5. Human pro-kallikrein-6 and -8 (pro-hK6 and 8 were activated using Lysyl-endopeptidase (Wako- BioProducts®) at a 1/500 weight ratio, in a buffer containing 50 mM Tris and 0,05% Brij-35 (pH 8). Kinetics using non-caspase enzymes for selectivity studies were done according to the following conditions.
(§4) Enzymes Substrates Buffers
(§5) Cathepsine B (0.2 nM) z-RR-AMC 20 µM Acétate de sodium 0,1 M; EDTA 1mM ; […]
(§6) Cathepsine L (1.2 nM) RLR-AMC 25 µM Acétate de sodium 0,1 M; EDTA 1mM ; […]
(§7) Cathepsine D (0.1 nM) Mca-Gly-Ly s-Pro-Ile-Leu-Phe-Phe- Citrate de Sodium 0,1 M; EDTA 2 mM ; Arg-Leu-Lys(Dnp)-D-Arg-NH2 10 µM Brij-35 0,01%; pH 4 hK1 (4 nM) Boc-VPR-AMC 100µM Tris 50mM; Citrate 1M; Brij-35 0.05%; pH7 hK6 (2 nM ) Boc-QAR -AMC 100 µM Tris 50mM; Citrate 1M; Brij-35 0.05%; pH7 hK8 (1 nM) Boc-VPR-AMC 100µM Tris 50mM; Citrate 1M; Brij-35 0.05%; pH7
(§8) Thrombine (10 mU/mL) Boc-VPR-AMC 100µM Tris 50mM; Citrate 1M; Brij-35 0.05%; pH7 Plasmine (4 nM ) Boc-QAR -AMC 100µM Tris 50mM; Citrate 1M; Brij-35 0.05%; pH7 Trypsine (0.1 nM) Boc-QAR -AMC 100µM Tris 50mM; Citrate 1M; Brij-35 0.05%; pH7

Kallikrein-1 = target: T1, Kallikrein-1 (Homo sapiens, UniProt P06870); assay: Non-caspase enzyme assay, Kallikrein-1; assay type: biochemical; details: concentrations up to 10 µM
T1 construct: purchased R&D Systems 2337-SE-010
T1 sequence (P06870 25-262): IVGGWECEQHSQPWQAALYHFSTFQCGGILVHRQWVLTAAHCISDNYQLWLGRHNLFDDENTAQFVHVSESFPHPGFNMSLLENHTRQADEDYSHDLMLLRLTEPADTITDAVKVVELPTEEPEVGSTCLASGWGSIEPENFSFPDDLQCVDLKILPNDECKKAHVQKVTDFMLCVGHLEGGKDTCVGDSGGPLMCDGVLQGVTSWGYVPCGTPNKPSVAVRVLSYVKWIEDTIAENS
Method: as §1, §2, §3, §4, §5, §6, §7, §8

Kallikrein-6 = target: T2, Kallikrein-6 (Homo sapiens, UniProt Q92876); assay: Non-caspase enzyme assay, Kallikrein-6; assay type: biochemical; details: concentrations up to 10 µM
T2 construct: purchased R&D Systems 5164-SE-010
Method: as §1, §2, §3, §4, §5, §6, §7, §8

Thrombin = target: T3, Thrombin (Homo sapiens, UniProt P00734); assay: Non-caspase enzyme assay, Thrombin; assay type: biochemical; details: concentrations up to 10 µM
T3 construct: The human active Plasmin, Thrombin, and Trypsin; purchased Sigma-Aldrich
Method: as §1, §2, §3, §4, §5, §6, §7, §8

Structure (SMILES): Cc1ccc2c(c1)CCN(C(=O)[C@@H](NC(=O)[C@H](CC(=O)O)NC(=O)[C@@H](NC(=O)c1ccc3ccccc3n1)C(C)C)C(C)C)C2C(=O)NC(CC(=O)O)C(=O)COc1c(F)cccc1F (stereo partly drawn) [LJ2, Quinolin-2-carbonyl-VDV-(methyl-isoquinolyl)-D-CH2-O(2,6F2)Ph] (Quinaldoyl-VDV[ξTHIQ1CO(6-Me)]-X1)
- effect against vincristine-induced cell death (HeLa cells): significantly prevented Vincristin-induced cell death in a dose-dependent manner

Structure (SMILES): CC(C)[C@H](NC(=O)c1ccc2ccccc2n1)C(=O)N[C@@H](CC(=O)O)C(=O)N[C@H](C(=O)N1CC[C@H](CC(C)(C)C)[C@@H]1C(=O)NC(CC(=O)O)C(=O)COc1c(F)cccc1F)C(C)C (some centres unmarked) [LJ3a]
- effect on Trypsin (Trypsin): very limited or no effect
- effect on Kallikrein-1 (Kallikrein-1): very limited or no effect
- effect on Kallikrein-6 (Kallikrein-6): very limited or no effect
- effect on Thrombin (Thrombin): very limited or no effect

— PMC9666555, “Genuine selective caspase-2 inhibition with new irreversible small peptidomimetics” (Cell Death & Disease, 2022)
